Data reported in publication PMC11954145, “Antimicrobial and ADME properties of methoxylated, methylated and nitrated 2-hydroxynaphthalene-1 carboxanilides” (ADMET & DMPK, 2025).
Converted amounts (≈) assume the structure as drawn. Like-named read-outs stand apart in the source and are kept apart here.

Key:
S. aureus ATCC 29213 = assay: Antibacterial screening, broth microdilution MIC; assay type: cell-based; conditions: Staphylococcus aureus, ATCC29213; ATCC 29213, 24 h at 37 °C; read-out: MIC S. aureus
MRSA 63718 = assay: Antibacterial screening, broth microdilution MIC; assay type: cell-based, methicillin-resistant S. aureus; conditions: Staphylococcus aureus, clinical isolate, 24 h at 37 °C, read-out: MIC MRSA 63718
MRSA SA 630 = assay: Antibacterial screening, broth microdilution MIC; assay type: cell-based, methicillin-resistant S. aureus; conditions: Staphylococcus aureus, clinical isolate, 24 h at 37 °C, read-out: MIC MRSA SA 630
MRSA SA 3202 = assay: Antibacterial screening, broth microdilution MIC; assay type: cell-based, methicillin-resistant S. aureus; conditions: Staphylococcus aureus, clinical isolate, 24 h at 37 °C, read-out: MIC MRSA SA 3202
[1] = system: Enterococcus faecalis ATCC 29212; assay: Antibacterial screening, broth microdilution MIC; assay type: cell-based; conditions: read-out: MIC E. faecalis
E. coli ATCC 25922 = assay: Antibacterial screening, broth microdilution MIC; assay type: cell-based; conditions: Escherichia coli, ATCC25922; ATCC 25922, 24 h at 37 °C
[2] = Lipophilicity determination by RP-HPLC (log k, log D); assay type: physicochemical; conditions: for log D6.5: RP-HPLC C18, MeOH 72 % / acetate-buffered saline pH 6.5; for log D7.4: RP-HPLC C18, MeOH 72 % / acetate-buffered saline pH 7.4; for log k (logarithm of the capacity factor): RP-HPLC C18, MeOH 72 % / water 28 %
Excerpt: An HPLC system Agilent 1200 equipped with a DAD detector (Agilent, Santa Clara, CA, USA) was used. A chromatographic column Symmetry® C18 5 μm, 4.6×250 mm, part No. WAT054275 (Waters Corp., Milford, MA, USA) was used. The HPLC separation process was monitored and evaluated with EZChrom Elite software ver. 3.3.2 (Agilent). Isocratic elution by a mixture of MeOH p.a. (72 %) and H2O-HPLC Mili-Q grade (28 %) as a mobile phase was used for the determination of capacity factor k. Isocratic elution by a mixture of MeOH p.a. (72 %) and acetate-buffered saline (pH 7.4 and pH 6.5) (28 %) as a mobile phase was used for the determination of distribution coefficients expressed as D7.4 and D6.5. The total flow of the column was 1.0 mL min^-1, the injection volume was 20 μL, the column temperature was 40 °C, and the sample temperature was 10 °C. The detection wavelength of 210 nm was chosen. A KI methanolic solution was used to determine the dead times (tD). Retention times (tR) were measured in minutes. The capacity factors k were calculated according to the formula k = (tR–tD)/tD, where tR is the retention time of the solute, and tD is the dead time obtained using an unretained analyte. The distribution coefficients DpH were calculated according to the formula DpH = (tR–tD)/tD. Each experiment was repeated three times.
The capacity factor and distribution coefficients were measured by RP-HPLC on a C18 column with methanol as an organic modifier of the mobile phase. In addition to the experimental lipophilicities, predicted log P values were also calculated using ACD/Percepta, see Table 1. […] The values of σ(Ar) are found in a wide range from 0.01 to 1.36, so the compounds contain substituents with both electron-donating and slightly electron-withdrawing properties.

VRE 342B = assay: Antibacterial screening, broth microdilution MIC; assay type: cell-based, vancomycin-resistant E. faecalis; conditions: Enterococcus, read-out: MIC VRE 342B
VRE 725B = assay: Antibacterial screening, broth microdilution MIC; assay type: cell-based, vancomycin-resistant E. faecalis; conditions: Enterococcus, read-out: MIC VRE 725B
VRE 368 = assay: Antibacterial screening, broth microdilution MIC; assay type: cell-based, vancomycin-resistant E. faecalis; conditions: Enterococcus, read-out: MIC VRE 368
[3] = system: Mycobacterium tuberculosis ATCC 25177/H37Ra; assay: Antimycobacterial screening, broth dilution MIC (Alamar blue); assay type: cell-based; conditions: 336 h, H37Ra, 14 days at 37 °C, Alamar blue, read-out: MIC M. tuberculosis
Procedure: The evaluation of in vitro antimycobacterial activity of the compounds was performed against Mycobacterium tuberculosis ATCC 25177/H37Ra, Mycobacterium kansasii DSM 44162 and Mycobacterium smegmatis ATCC 700084.
The broth dilution micro-method in Middlebrook 7H9 medium (Difco, Lawrence, KS, USA) supplemented with ADC Enrichment (Difco) was used to determine the minimum inhibitory concentration (MIC) as previously described. […] The final concentrations of the evaluated compounds, ranging from 256 to 0.125 μg mL^-1, were obtained by twofold serial dilution of the stock solution in a microtiter plate with a sterile medium. Bacterial inocula were prepared by transferring colonies from culture to sterile water. The plate was inoculated by tested microorganisms. The final concentration of bacterial cells was 1.5×10^6 for M. tuberculosis and 10^5 cells in a microtiter plate for other mycobacteria. Isoniazid and rifampicin (Sigma) were used as reference antimycobacterial drugs. Drug-free controls, sterility controls, and controls consisting of medium and DMSO alone were included. The plates were incubated for a defined time at an appropriate temperature (3 days at 37 °C for M. smegmatis, and 14 days at 37 °C for M. tuberculosis and M. kansasii). […] The MICs against M. tuberculosis were evaluated by Alamar blue (Oxoid). After incubation, 10 % of Alamar blue was added to each well, and the plate was incubated for 24 h. The MIC values were assessed as the lowest concentration of the tested compounds, which prevented changing blue resazurin to pink resorufin. The experiments were repeated three times. The minimum inhibitory concentrations (MICs) were defined as the lowest concentration of the compound at which no visible bacterial growth was observed. The MIC value is routinely and widely used in bacterial assays and is a standard detection limit according to the CLSI [60].

[4] = system: Mycobacterium kansasii DSM 44162; assay: Antimycobacterial screening, broth dilution MIC; assay type: cell-based; conditions: DSM44162, 336 h, read-out: MIC M. kansasii
[5] = system: Mycobacterium smegmatis ATCC 700084; assay: Antimycobacterial screening, broth dilution MIC; assay type: cell-based; conditions: Mycolicibacterium smegmatis, ATCC700084, 72 h; ATCC 700084, 3 days at 37 °C; read-out: MIC M. smegmatis
[6] = ATCC29212, ATCC 29212, 24 h at 37 °C

Row | SMILES | MIC (S. aureus ATCC 29213) [µM] | MIC (MRSA 63718) [µM] | MIC (MRSA SA 630) [µM] | MIC (MRSA SA 3202) [µM] | MIC [1, 6] [µM] | MIC (E. coli ATCC 25922) [µM] | log D6.5 [2] | log D7.4 [2] | log k (logarithm of the capacity factor) [2] | MIC ([1]; ATCC29212, 24 h) [µM] | MIC (VRE 342B; 24 h) [µM] | MIC (VRE 725B; 24 h) [µM] | MIC (VRE 368; 24 h) [µM] | MIC [3] [µM] | MIC [4] [µM] | MIC (VRE 342B; vanA isolate, 24 h at 37 °C) [µM] | MIC (VRE 725B; vanA isolate, 24 h at 37 °C) [µM] | MIC (VRE 368; vanA isolate, 24 h at 37 °C) [µM] | MIC ([4]; DSM 44162, 14 days at 37 °C) [µM] | MIC [5] [µM]
1 | CC1(C)S[C@@H]2[C@H](NC(=O)[C@H](N)c3ccccc3)C(=O)N2[C@H]1C(=O)O [AMP, ampicillin, reference compound] | 5.72 (≈ 2 µg/mL) | 45.8 (≈ 16 µg/mL) | 45.8 (≈ 16 µg/mL) | 45.8 (≈ 16 µg/mL) | 2.81 (≈ 0.982 µg/mL) | 45.8 (≈ 16 µg/mL) |  |  |  |  |  |  |  |  |  |  |  |  |  | 
2 | COc1ccccc1NC(=O)c1c(O)ccc2ccccc12 [Compound 2, 2-hydroxy-N-(2-methoxyphenyl)naphthalene-1-carboxamide] |  |  |  |  |  | 873 (≈ 256 µg/mL) | 0.3015 | 0.3069 | 0.3181 | > 873 | > 873 | > 873 | > 873 | > 873 | > 873 |  |  |  |  | 
3 | COc1cccc(NC(=O)c2c(O)ccc3ccccc23)c1 [Compound 3, 2-hydroxy-N-(3-methoxyphenyl)naphthalene-1-carboxamide] | 436 (≈ 128 µg/mL) | 436 (≈ 128 µg/mL) | 873 (≈ 256 µg/mL) |  | > 873 | 873 (≈ 256 µg/mL) | 0.1643 | 0.1717 | 0.1751 |  |  |  |  | 218 (≈ 63.9 µg/mL) |  | > 873 | > 873 | > 873 | 109 (≈ 32 µg/mL) | 
4 | COc1ccc(NC(=O)c2c(O)ccc3ccccc23)cc1 [Compound 4, 2-hydroxy-N-(4-methoxyphenyl)naphthalene-1-carboxamide] | > 873 | > 873 | > 873 | > 873 | > 873 | 873 (≈ 256 µg/mL) | -0.0491 | -0.0382 | -0.0380 |  |  |  |  | 109 (≈ 32 µg/mL) |  | > 873 | > 873 | > 873 | 218 (≈ 63.9 µg/mL) | 436 (≈ 128 µg/mL)
5 | COc1ccc(OC)c(NC(=O)c2c(O)ccc3ccccc23)c1 [Compound 5, N-(2,5-Dimethoxyphenyl)-2-hydroxynaphthalene-1-carboxamide] | 792 (≈ 256 µg/mL) | 792 (≈ 256 µg/mL) | 792 (≈ 256 µg/mL) | 792 (≈ 256 µg/mL) | 792 (≈ 256 µg/mL) | 792 (≈ 256 µg/mL) | 0.3263 | 0.3310 | 0.3353 |  |  |  |  | 396 (≈ 128 µg/mL) |  | 792 (≈ 256 µg/mL) | 792 (≈ 256 µg/mL) | 792 (≈ 256 µg/mL) | 792 (≈ 256 µg/mL) | 792 (≈ 256 µg/mL)
6 | Cc1cccc(NC(=O)c2c(O)ccc3ccccc23)c1 [Compound 9, 2-hydroxy-N-(3--methylphenyl)naphthalene-1-carboxamide] |  | 462 (≈ 128 µg/mL) |  |  | 462 (≈ 128 µg/mL) | 462 (≈ 128 µg/mL) | 0.1644 | 0.1727 | 0.1762 |  |  |  |  | 231 (≈ 64.1 µg/mL) |  | 462 (≈ 128 µg/mL) | 462 (≈ 128 µg/mL) | 462 (≈ 128 µg/mL) | 115 (≈ 31.9 µg/mL) | 
7 | Cc1ccc(NC(=O)c2c(O)ccc3ccccc23)cc1 [Compound 10, 2-hydroxy-N-(4-methylphenyl)naphthalene-1-carboxamide] |  | 462 (≈ 128 µg/mL) | 462 (≈ 128 µg/mL) | 462 (≈ 128 µg/mL) | 462 (≈ 128 µg/mL) | 462 (≈ 128 µg/mL) | 0.1553 | 0.1632 | 0.1658 |  |  |  |  | 231 (≈ 64.1 µg/mL) |  | 462 (≈ 128 µg/mL) | 462 (≈ 128 µg/mL) | 462 (≈ 128 µg/mL) | 115 (≈ 31.9 µg/mL) | > 923
8 | NNC(=O)c1ccncc1 [INH, isoniazid, reference compound] |  |  |  |  |  |  |  |  |  |  |  |  |  | 36.5 (≈ 5.01 µg/mL) |  |  |  |  | 233 (≈ 32 µg/mL) | 117 (≈ 16 µg/mL)
9 | CO[C@H]1/C=C/O[C@@]2(C)Oc3c(C)c(O)c4c(O)c(c(/C=N/N5CCN(C)CC5)c(O)c4c3C2=O)NC(=O)/C(C)=C\C=C\[C@H](C)[C@H](O)[C@@H](C)[C@@H](O)[C@@H](C)[C@H](OC(C)=O)[C@@H]1C [RIF, rifampicin, reference compound] |  |  |  |  |  |  |  |  |  |  |  |  |  | 9.71 (≈ 7.99 µg/mL) |  |  |  |  | 0.15 (≈ 0.123 µg/mL) | 19.4 (≈ 16 µg/mL)
